Reference: PubChem BioAssay AID330 (DTP/NCI, 2004)
Values joined by “and” are separate entries in the source; they are usually repeats but may differ in a detail not shown here. Identical values can stand only once. Toxic doses and inconclusive results are not listed. Rule for the calls: active = survival T/C of 150% or more; inactive = T/C below 125% in these data.

Test system: P388 leukemia ip, CD2F1 mice, survival T/C
Assay: NCI In Vivo Anticancer Drug Screen. Data for tumor model P388 Leukemia (intraperitoneal) in CD2F1 (CDF1) mice
Details: endpoint: median survival time, higher = longer survival
In short: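 Mice carrying the transplanted tumor received test compound or vehicle. Survival was recorded in each group, and the value is the treated-group measurement divided by that of the vehicle-treated control group.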

[1] = dose: 50.0 mg/kg/injection, schedule: Q01DX005 (ip), vehicle: Klucel (hydroxypropylcellulose) (HPC)
[2] = dose: 100.0 mg/kg/injection, schedule: Q01DX005 (ip), vehicle: Klucel (hydroxypropylcellulose) (HPC)
[3] = dose: 200.0 mg/kg/injection, schedule: Q01DX005 (ip), vehicle: Klucel (hydroxypropylcellulose) (HPC)
[4] = dose: 50.0 mg/kg/injection, schedule: Q01DX009 (ip), vehicle: Klucel (hydroxypropylcellulose) (HPC)
[5] = dose: 50.0 mg/kg/injection, schedule: Q01DX009 (ip), vehicle: saline
[6] = dose: 100.0 mg/kg/injection, schedule: Q01DX009 (ip), vehicle: Klucel (hydroxypropylcellulose) (HPC)
[7] = dose: 200.0 mg/kg/injection, schedule: Q01DX009 (ip), vehicle: Klucel (hydroxypropylcellulose) (HPC)
[8] = dose: 25.0 mg/kg/injection, schedule: Q01DX009 (ip), vehicle: saline

Measured: T/C

CC(C)C1CCC2(C)C(CCC3C4(C)CCCC32OC4=O)C1 (stereo not drawn)
inactive: [1] 104 % of control | [2] 99 % of control | [3] 101 % of control

CC1CNC2(c3ccccc3)CSC=C(c3ccccc3)N12 (stereo not drawn)
inactive: dose: 100.0 mg/kg/injection, schedule: Q04DX002 (ip), vehicle: saline with Tween-80 98 % of control | dose: 200.0 mg/kg/injection, schedule: Q04DX002 (ip), vehicle: saline with Tween-80 101 % of control | dose: 400.0 mg/kg/injection, schedule: Q04DX002 (ip), vehicle: saline with Tween-80 102 % of control

Cc1ccc(N(O)C(C)(C)C)cc1
inactive: dose: 25.0 mg/kg/injection, schedule: Q01DX009 (ip), vehicle: saline with Tween-80 97 % of control | dose: 25.0 mg/kg/injection, schedule: Q04DX003 (ip), vehicle: gum acacia 99 % of control | dose: 50.0 mg/kg/injection, schedule: Q01DX009 (ip), vehicle: saline with Tween-80 91 % of control | dose: 50.0 mg/kg/injection, schedule: Q04DX003 (ip), vehicle: gum acacia 100 % of control | dose: 100.0 mg/kg/injection, schedule: Q01DX009 (ip), vehicle: saline with Tween-80 102 % of control | dose: 100.0 mg/kg/injection, schedule: Q04DX003 (ip), vehicle: gum acacia 110 % of control | dose: 200.0 mg/kg/injection, schedule: Q04DX003 (ip), vehicle: gum acacia 100 % of control

COC(=O)C1=Cc2c(n3ncnc3n(-c3ccccc3)c2=O)N(S(=O)(=O)c2ccc(C)cc2)CC1
inactive: dose: 60.0 mg/kg/injection, schedule: Q01DX005 (ip), vehicle: saline with Tween-80 93 % of control | dose: 120.0 mg/kg/injection, schedule: Q01DX005 (ip), vehicle: saline with Tween-80 95 % of control | dose: 240.0 mg/kg/injection, schedule: Q01DX005 (ip), vehicle: saline with Tween-80 97 % of control

O=C(O)CCCc1ccc2ccc3cccc4ccc1c2c34
inactive: dose: 50.0 mg/kg/injection, schedule: Q01DX005 (ip), vehicle: saline with Tween-80 102 % of control | dose: 100.0 mg/kg/injection, schedule: Q01DX005 (ip), vehicle: saline with Tween-80 98 % of control | dose: 200.0 mg/kg/injection, schedule: Q01DX005 (ip), vehicle: saline with Tween-80 100 % of control

CO[C@@H]1[C@@H](O)c2ccccc2N1C(C)=O
inactive: dose: 60.0 mg/kg/injection, schedule: Q01DX005 (ip), vehicle: saline 104 % of control | dose: 120.0 mg/kg/injection, schedule: Q01DX005 (ip), vehicle: saline 102 % of control | dose: 240.0 mg/kg/injection, schedule: Q01DX005 (ip), vehicle: saline 104 % of control

C1=NCCNc2nc3ccccc3cc2C=NCCNc2nc3ccccc3cc21
inactive: dose: 50.0 mg/kg/injection, schedule: Q04DX002 (ip), vehicle: saline 100 % of control | dose: 100.0 mg/kg/injection, schedule: Q04DX002 (ip), vehicle: saline 99 % of control | dose: 200.0 mg/kg/injection, schedule: Q04DX002 (ip), vehicle: saline 99 % of control

CCC1(c2ccccc2)CCCC/C1=N/Nc1ccc([N+](=O)[O-])cc1[N+](=O)[O-] (stereo not drawn)
inactive: dose: 100.0 mg/kg/injection, schedule: Q04DX003 (ip), vehicle: Klucel (hydroxypropylcellulose) (HPC) 91 % of control | dose: 200.0 mg/kg/injection, schedule: Q04DX003 (ip), vehicle: Klucel (hydroxypropylcellulose) (HPC) 92 % of control | dose: 400.0 mg/kg/injection, schedule: Q04DX003 (ip), vehicle: Klucel (hydroxypropylcellulose) (HPC) 99 % of control

COc1ccc(/C=C/C(=O)CCC(=O)O)cc1OC
inactive: [4] 100 % of control and 109 % of control | [5] 114 % of control | [6] 108 % of control and 109 % of control | [7] 106 % of control and 110 % of control

CCOC(=O)CN(CC(=O)OCC)c1ccccc1OCCOc1ccccc1N(CC(=O)OCC)CC(=O)OCC
inactive: dose: 60.0 mg/kg/injection, schedule: Q01DX005 (ip), vehicle: Klucel (hydroxypropylcellulose) (HPC) 95 % of control | dose: 120.0 mg/kg/injection, schedule: Q01DX005 (ip), vehicle: Klucel (hydroxypropylcellulose) (HPC) 96 % of control | dose: 240.0 mg/kg/injection, schedule: Q01DX005 (ip), vehicle: Klucel (hydroxypropylcellulose) (HPC) 93 % of control

N=C=S.O=NO.O=N[O-].[Co+3].[NH-]CC[NH-].[NH-]CC[NH-]
inactive: dose: 13.0 mg/kg/injection, schedule: Q01DX009 (ip), vehicle: saline 105 % of control | [8] 113 % of control | [5] 103 % of control

NC(Cc1ccc(O)cc1)C(=O)N/N=C/c1ccccc1Cl (stereo not drawn)
inactive: [1] 100 % of control | [2] 106 % of control

COc1c2c(c(OC)c3c1C(=O)c1ccccc1C3O)CC=CC2 (stereo not drawn)
inactive: dose: 25.0 mg/kg/injection, schedule: Q01DX009 (ip), vehicle: other 94 % of control | dose: 50.0 mg/kg/injection, schedule: Q01DX009 (ip), vehicle: other 91 % of control | dose: 100.0 mg/kg/injection, schedule: Q01DX009 (ip), vehicle: other 91 % of control | dose: 200.0 mg/kg/injection, schedule: Q01DX009 (ip), vehicle: other 95 % of control | dose: 400.0 mg/kg/injection, schedule: Q01DX009 (ip), vehicle: other 100 % of control

CN(C)c1ccc(C=Nc2ccc3ccc4cccc5ccc2c3c45)cc1
inactive: [4] 101 % of control | [6] 102 % of control | [7] 102 % of control

[CH3][Sn]([CH3])([CH3])[O][N+](=O)[O-]
inactive: dose: 0.37 mg/kg/injection, schedule: Q01DX009 (ip), vehicle: saline 111 % of control | dose: 0.75 mg/kg/injection, schedule: Q01DX009 (ip), vehicle: saline 91 % of control

CCOP(=O)(Nc1ccc2c(c1)C(=O)c1ccccc1-2)OCC
inactive: [1] 102 % of control | [2] 96 % of control | [3] 96 % of control

CC1CCC(NC(=O)N(CCCl)N=O)CC1 (stereo not drawn)
inactive: dose: 1.0 mg/kg/injection, schedule: Q01DX009 (ip), vehicle: saline sonified 112 % of control | dose: 2.0 mg/kg/injection, schedule: Q01DX009 (ip), vehicle: saline with Tween-80 122 % of control | dose: 8.0 mg/kg/injection, schedule: Q01DX009 (ip), vehicle: saline sonified 100 % of control | dose: 10.0 mg/kg/injection, schedule: Q04DX003 (ip), vehicle: saline with Tween-80 108 % of control and 120 % of control | dose: 16.0 mg/kg/injection, schedule: Q01DX009 (ip), vehicle: saline with Tween-80 109 % of control | dose: 24.0 mg/kg/injection, schedule: Q04DX003 (ip), vehicle: other 110 % of control
active: dose: 3.0 mg/kg/injection, schedule: Q04DX003 (ip), vehicle: other 163 % of control | dose: 3.75 mg/kg/injection, schedule: Q04DX003 (ip), vehicle: other 163 % of control | dose: 4.0 mg/kg/injection, schedule: Q01DX009 (ip), vehicle: saline sonified 166 % of control | dose: 4.0 mg/kg/injection, schedule: Q01DX009 (ip), vehicle: saline with Tween-80 154 % of control | dose: 5.0 mg/kg/injection, schedule: Q04DX003 (ip), vehicle: other 238 % of control | dose: 6.0 mg/kg/injection, schedule: Q04DX003 (ip), vehicle: other 247 % of control | dose: 7.5 mg/kg/injection, schedule: Q04DX003 (ip), vehicle: other 225 % of control | dose: 8.0 mg/kg/injection, schedule: Q01DX009 (ip), vehicle: saline with Tween-80 190 % of control | dose: 10.0 mg/kg/injection, schedule: Q04DX003 (ip), vehicle: other 160 % of control | dose: 12.0 mg/kg/injection, schedule: Q04DX003 (ip), vehicle: other 238 % of control | dose: 15.0 mg/kg/injection, schedule: Q04DX003 (ip), vehicle: other 441 % of control | dose: 15.0 mg/kg/injection, schedule: Q04DX003 (ip), vehicle: saline with Tween-80 218 % of control | dose: 20.0 mg/kg/injection, schedule: Q04DX003 (ip), vehicle: other 231 % of control | dose: 20.0 mg/kg/injection, schedule: Q04DX003 (ip), vehicle: saline with Tween-80 227 % of control and 250 % of control | dose: 30.0 mg/kg/injection, schedule: Q04DX003 (ip), vehicle: other 156 % of control

S=C(Nc1ccc(Cl)cc1)SC1CCCCC1
inactive: [8] 100 % of control | [5] 102 % of control and 108 % of control | dose: 100.0 mg/kg/injection, schedule: Q01DX009 (ip), vehicle: saline 118 % of control and 119 % of control | dose: 200.0 mg/kg/injection, schedule: Q01DX009 (ip), vehicle: saline 124 % of control

COC(=O)c1c([As](C)C)n[n]([Sn]([CH3])([CH3])[CH3])c1C(=O)OC
inactive: dose: 6.25 mg/kg/injection, schedule: Q04DX003 (ip), vehicle: saline 88 % of control | dose: 12.5 mg/kg/injection, schedule: Q04DX003 (ip), vehicle: saline 99 % of control

Clc1ccc(CSc2nnc3c(n2)[nH]c2ccccc23)cc1
inactive: [1] 100 % of control | [2] 107 % of control | [3] 98 % of control
